Assay in all cases: growth of human tumour cells (NCI), 48 h
The test system of test [1] is A498 renal.
Test [2] deals with HCC-2998 colon.
Test [3] concerns HL-60(TB) leukemia.
In test [4] the test system is K-562 leukemia.
The test system of test [5] is MOLT-4 leukemia.
In test [6] the test system is OVCAR-4 ovarian.
In test [7] the test system is SK-OV-3 ovarian.
The test system of test [8] is SNB-75 CNS.
In test [9] the test system is MDA-MB-231 breast.
The subject of test [10] is MDA-MB-435.

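96-well plates; 48 h exposure; 5 concentrations. Endpoints by linear interpolation between flanking doses. Not reached: highest tested concentration assigned. At the GI50, growth is halved. TGI denotes the concentration required for complete inhibition of growth.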

For `Cc1cc([NH-])c([NH-])cc1C.[Cl][Pt+2][Cl]`, the GI50 was 33.4 µM in test [1]; over 44.8 µM in test [2]; 17 µM in [3]; 5.07 µM in [5]; 16.9 µM in test [6]; over 96.8 µM in test [7]. In addition, the GI50 in test [8] is 39.2 µM. The TGI was over 87.6 µM in test [1]; 99.1 µM in [2]; 75.4 µM in [3]; over 41.5 µM in [4]; 41.6 µM in [5]; 31.7 µM in test [6]. The TGI in test [7] and in [8] was over 100 µM throughout.

As to `COc1ccc(N2CC(=O)N(C(=O)COc3ccc(OCC(=O)N4C(=O)CN(c5ccc(OC)cc5)C4=S)cc3)C2=S)cc1`, the TGI in test [1], in [2], in test [4], in test [9], in [10] and in [5] was over 100 µM each time. For the same molecule, the TGI in [6], in test [7] and in [8] was over 100 µM each time.

As to `O=C(Nc1ccccc1F)c1cc2ccc(O)cc2oc1=Nc1cccc(F)c1`, the TGI was found to be 43.8 µM in test [1]; 33.8 µM in [2]; 27 µM in [3]; 79.3 µM in test [4]; 35.7 µM in test [10]; 44.6 µM in [5]. The results for the TGI in test [6] and in test [7] were 53.6 µM and over 100 µM, respectively.

`CCNCCNC(=O)c1ccc(I)cc1`: the TGI in test [1], in test [2], in [3], in test [4], in test [5] and in [6] was over 100 µM in each case. Also, the TGI in test [7] and in test [8] was over 100 µM each time.

Turning to `Cc1ccc(C)c(NC(=O)C(=O)C(C(=O)c2ccc3ccccc3c2)C2OC(=O)c3ccccc32)c1` (configuration not stated), the TGI in [1] was 47.4 µM; in [2], 28.7 µM; in test [3] it was 52 µM; in test [4] it was over 100 µM; in test [5], over 100 µM; in [6], over 100 µM. For the same molecule, the TGI stood at 48.9 µM in test [7] and 58.8 µM in test [8].

`O=C1[C@H](O)[C@@H]2C(O)O[C@H]3[C@@H]2N1C[C@H]3[Si](c1ccccc1)(c1ccccc1)c1ccccc1` (some centres not stated): the TGI in test [1], in test [2], in [4], in [9], in [10] and in test [5] was over 100 µM throughout. Further, the results for the TGI in [6], in [7] and in test [8] were over 100 µM, over 100 µM and 69.4 µM, respectively.

For `C[C@H](c1ccccc1)N1C(=O)[C@@H](O)[C@H]1[C@H](CO)OCc1ccccc1`, the TGI in [1], in test [4], in [9], in [10], in [5] and in [6] was over 100 µM each time. The TGI in [7] and in [8] was over 100 µM each time.

As to `COC1=NCc2ccccc2-c2ccccc21`, the TGI in test [3], in [4], in test [5], in test [6], in [7] and in test [8] was over 100 µM each time.

In the case of `C#CCNC(CSSCC(N)C(=O)O)C(=O)O` (configuration not stated), the TGI in [1], in test [2], in test [9], in test [10], in [5] and in test [6] was over 100 µM in each case. Further, the TGI in test [7] and in test [8] was over 100 µM throughout.

Take `O=c1[nH]cc(NCCCl)c(=O)[nH]1`: the TGI in test [1], in test [2], in test [4], in test [9], in test [10] and in test [5] was over 100 µM each time. The TGI in test [6], in test [7] and in [8] was over 100 µM in each case.

Regarding `O=C(O)CC(Cc1ccccc1Cl)C(=O)O` (configuration not stated), the TGI in test [1], in test [2], in test [4], in test [9], in [10] and in [5] was over 100 µM each time. Also, the TGI in test [6] and in test [7] was over 100 µM each time.

As for `CCOC(=O)C(C#N)(Cc1c[nH]c2ccccc12)NC(C)=O` (configuration not stated), the TGI in test [2], in test [3], in [4], in [5], in [6] and in [7] was over 100 µM each time. In test [8], the TGI is over 100 µM.

Consider `c1ccc(-c2csc3c4ccccc4c4ccccc4[n+]23)cc1`, for which the TGI in test [1] is 33.4 µM; in test [2], 13 µM; in [3], over 35 µM; in test [4], over 30.7 µM; in [5] it was over 25.5 µM; in test [6], 18.3 µM. The TGI in [7] worked out at 38.5 µM; in test [8], 6.98 µM.

As to `CC(=O)NC1C(OCc2ccccc2)OC(CO)C(O)C1OCC(=O)N1CCCC1C(=O)N[C@@H](CCC(=O)NCCCCNc1c2ccccc2nc2cccc([N+](=O)[O-])c12)C(N)=O` (some centres not stated), the TGI in test [1] was over 100 µM; in test [2], 52.4 µM; in [4], over 100 µM; in test [10], 54.5 µM; in test [5], over 100 µM; in test [6] it was over 100 µM. Also, the TGI in test [7] is over 100 µM; in test [8], 65.8 µM.

In the case of `CC(C)(C)c1ccccc1N1C(=O)c2ccc3c4c(ccc(c24)C1=O)N(c1ccccc1C(C)(C)C)C3=O`, the TGI in test [2], in [4], in test [9], in test [10], in test [5] and in test [6] was over 100 µM throughout. The TGI in test [7] is over 100 µM.

As to `Cc1c(/C=N/NC(=O)c2ccccc2O)c(=O)n(-c2ccccc2)n1C`, the TGI in [2], in test [3], in [4], in test [5], in [6] and in test [7] was over 100 µM each time. The TGI in [8] is over 100 µM.

Turning to `C[C@@H](NC(C#N)c1ccco1)c1ccccc1` (some centres not stated), the TGI in [1], in test [2], in test [3], in [4], in test [10] and in test [5] was over 100 µM in each case. For the same molecule, the TGI in test [7] and in [8] was over 100 µM each time.

Turning to `CCCCCOc1ccc(C=Nc2ccc(CCc3ccc(N=Cc4ccc(OCCCCC)cc4)cc3)cc2)cc1`, the TGI in [1], in test [2], in [3], in test [4], in test [5] and in test [6] was over 100 µM each time. The TGI in test [7] and in test [8] was over 100 µM each time.

In the case of `CCn1nc(C)c2c1C(=O)NCC(=O)N2`, the TGI in test [1], in test [10], in [6], in [7] and in [8] was over 100 µM each time.

Take `CN(C)CCNc1ccc2c(=O)n(CCN(C)C)c(=O)n3c4ccc(O)cc4c(=O)c1c23`: the TGI in [1] was 0.515 µM; in [2] it was 0.186 µM; in test [9], 0.12 µM; in test [10] it was 0.259 µM; in test [5] it was under 0.01 µM; in test [6], 0.38 µM. Further, the TGI in test [7] was 1.04 µM; in test [8], 0.305 µM.

For the molecule `CNC(C)(C)Cc1ccc(Cl)cc1`, the TGI in [1], in [2], in [4], in test [5], in [6] and in test [7] was over 100 µM throughout. This molecule also showed a TGI in test [8] of over 100 µM.

On to `c1ccc(/C(=N/Nc2nc3ccccc3s2)C2CCCCC2)nc1`, for which the TGI in test [1] is 31.4 µM; in [2], 0.0519 µM; in [4], 70 µM; in test [9], 27.3 µM; in test [10] it was 39.3 µM; in test [5], 27.8 µM. The TGI in test [6] is 22.3 µM; in test [7], 18.7 µM.

For the molecule `CCCCN(CCCC)Cc1cc(Nc2ccnc3cc(Cl)ccc23)ccc1O`, the GI50 is 42.4 µM in test [2]; 5.88 µM in test [3]; 2.3 µM in [4]; 37.5 µM in [5]; over 100 µM in test [6]; 8.83 µM in test [7]. Moreover, the GI50 in test [8] was 2.83 µM. Further, the TGI in [2], in test [3], in test [4], in test [5], in [6] and in [7] was over 100 µM throughout. Also, the TGI in test [8] worked out at 13.6 µM.

Take `N#CCCN(CCC#N)c1ccc(/C=C2\N=C(c3ccccc3)N(c3ccc(F)cc3)C2=O)cc1`: the TGI in test [1], in test [4], in test [9], in test [10], in test [5] and in test [6] was over 100 µM in each case. Besides, the TGI in test [7] and in test [8] was over 100 µM throughout.

As to `CC(=O)Nc1ccc2c(C)c3c(nc2n1)[nH]c1ccccc13`, the TGI in test [1] was over 100 µM; in [2] it was 76.1 µM; in [4], over 100 µM; in test [9] it was over 100 µM; in test [10], 87.3 µM; in [5] it was 53.6 µM. The TGI is over 100 µM in test [6] and 69.2 µM in [8].

On to `O=C(/C=C(/C=C/c1ccc2[nH]ccc2c1)OB(F)F)/C=C/c1ccc2[nH]ccc2c1`, for which the GI50 in test [1] was 2.61 µM; in test [3], 1.88 µM; in [9], 3.38 µM; in test [5] it was 2.06 µM; in test [6] it was 0.726 µM; in test [7] it was 3.43 µM. In addition, the GI50 in [8] was 2.72 µM. Further, the TGI in test [1] is 6.71 µM; in test [3], over 100 µM; in test [9], over 100 µM; in [5], over 100 µM; in test [6], 6.46 µM; in test [7], over 100 µM. In test [8], this molecule returned a TGI of 15.7 µM.

For `Nc1n(CC(=O)c2ccccc2)nc2sc(-c3ccccc3)n[n+]12`, the TGI in [1] is 86.9 µM; in test [2], 25 µM; in test [4], over 100 µM; in test [10], 8.95 µM; in [5], over 100 µM; in test [6] it was over 100 µM. The TGI in test [7] is 92 µM; in test [8], over 100 µM.

Regarding `CN1CCC(CNc2cc(C3(C(=O)Nc4cc(C(=O)Nc5ccc(Cl)c(C(F)(F)F)c5)ccc4F)CC3)ncn2)CC1`, the GI50 was 2.52 µM in test [1]; 2.39 µM in test [2]; 1.42 µM in [9]; 1.84 µM in test [10]; 2.03 µM in [5]; 13.6 µM in [6]. Moreover, the values for the GI50 in [7] and in test [8] were 2.17 µM and 0.955 µM, respectively. The TGI turned out to be 7.87 µM in test [1]; 5.22 µM in test [2]; 2.99 µM in [9]; 4.04 µM in test [10]; 6.09 µM in [5]; 39.5 µM in test [6]. The TGI in [7] was 4.58 µM; in test [8], 2.86 µM.

Regarding `N=C1C(=N)c2ccccc2-c2ccccc21.[Cl-].[Ru+2].c1ccc(-c2ccccn2)nc1.c1ccc(-c2ccccn2)nc1`, the TGI in test [2], in test [3], in test [4], in test [5], in test [6] and in [7] was over 100 µM in each case. The molecule further yielded a TGI in test [8] of over 100 µM.

For the origin of these results see PubChem BioAssay (NCI).
